Data on two compounds can be found in patent US5948792A, “Fluorine-containing 1,4-disubstituted piperidine derivatives” (Banyu Pharmaceutical Co., Ltd., priority 1996, dated 1999).

In one experiment the target is T1, Muscarinic M2 receptor (Homo sapiens, UniProt P08172).
T1 construct: purchased Receptor Biology, Inc; host or cells: CHO cells (membranes)
T1 sequence (P08172 1-466): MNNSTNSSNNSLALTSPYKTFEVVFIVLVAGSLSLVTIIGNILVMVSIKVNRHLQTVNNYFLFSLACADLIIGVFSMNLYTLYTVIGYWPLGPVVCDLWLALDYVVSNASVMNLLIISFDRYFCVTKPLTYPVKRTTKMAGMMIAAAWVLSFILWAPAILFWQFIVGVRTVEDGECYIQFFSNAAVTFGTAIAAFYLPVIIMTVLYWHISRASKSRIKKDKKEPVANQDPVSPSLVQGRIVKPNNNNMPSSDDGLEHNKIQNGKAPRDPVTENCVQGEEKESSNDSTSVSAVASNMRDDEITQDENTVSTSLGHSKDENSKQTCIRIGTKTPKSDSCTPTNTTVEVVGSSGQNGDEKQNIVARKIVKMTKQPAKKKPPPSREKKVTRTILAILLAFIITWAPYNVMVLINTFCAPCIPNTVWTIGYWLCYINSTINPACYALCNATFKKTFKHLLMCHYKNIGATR
As to the kind of experiment: Inhibition of binding of [3H]-N-methylscopolamine to muscarinic M2 receptor. As to conditions: CHO cell membranes expressing cloned human receptor; 0.2 nM [3H]-N-methylscopolamine, pH 7.4, 2 hours, 25° C; read-out: Ki M2 (inhibitory effects on binding to muscarinic M2 receptor). How it is done:
(§1) Tests on Inhibition of Binding to Muscarinic Receptors
(§2) These tests were performed according to a modification of the method of Hargreaves et al. (Br. J. Pharmacol. 107: 494-501, 1992). Membranes from CHO cells expressing cloned human m1-m5 (Receptor Biology, Inc.) were incubated with 0.2 nM [^3 H]-N-methylscopolamine and each a compound of the present invention to be tested in 0.5 ml of 50 mM Tris-HCl-10 mM MgCl2 -1 mM EDTA (pH 7.4) for 2 hours at 25° C. Free and membrane-bound [^3 H]-N-methylscopolamine were separated by filtration over glass filters (UniFilter-GF/C; Packard Instruments Co., Inc.) using cell harvester (Filtermate™ 196; Packard Instruments Co., Inc.). Then the filter was washed four times with 1 ml of ice-cold Tris-HCl (pH 7.4) and dried at 50° C. After adding a scintillator (Microscinti 0; Packard Instruments Co., Inc.), the radioactivity was counted by a liquid scintillation counter (TopCount™; Packard Instruments Co., Inc.). Non-specific binding was measured in the presence of 1 μM N-methylscopolamine.

Another experiment has as its target T2, Muscarinic M3 receptor (Homo sapiens, UniProt P20309).
T2 construct: purchased Receptor Biology, Inc; host or cells: CHO cells (membranes)
In words: Inhibition of binding of [3H]-N-methylscopolamine to muscarinic M3 receptor. On the procedure:
as §1, §2

T2 sequence (P20309 whole entry): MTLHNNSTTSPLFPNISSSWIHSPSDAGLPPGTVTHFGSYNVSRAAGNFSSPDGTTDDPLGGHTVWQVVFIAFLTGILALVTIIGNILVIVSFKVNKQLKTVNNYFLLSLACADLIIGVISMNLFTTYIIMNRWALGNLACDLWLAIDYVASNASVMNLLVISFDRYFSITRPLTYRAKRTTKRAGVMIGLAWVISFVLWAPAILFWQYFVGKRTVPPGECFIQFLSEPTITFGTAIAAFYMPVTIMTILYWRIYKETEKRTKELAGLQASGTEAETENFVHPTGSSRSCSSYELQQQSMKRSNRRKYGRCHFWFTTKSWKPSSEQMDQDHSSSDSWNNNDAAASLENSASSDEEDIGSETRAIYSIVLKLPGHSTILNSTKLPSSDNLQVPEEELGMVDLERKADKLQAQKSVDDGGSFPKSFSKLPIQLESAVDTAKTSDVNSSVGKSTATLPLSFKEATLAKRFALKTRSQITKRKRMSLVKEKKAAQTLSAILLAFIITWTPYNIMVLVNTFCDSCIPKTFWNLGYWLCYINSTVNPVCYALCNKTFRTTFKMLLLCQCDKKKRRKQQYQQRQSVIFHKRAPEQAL

In general, Ki refers to the dissociation constant of the complex between target and ligand, obtained from inhibition or displacement. On to `O=C(NC1CCN(Cc2ccsc2)CC1)[C@](O)(c1ccccc1)[C@@H]1CCC(F)(F)C1` [Example 11, (2R)-N-[1-(3-thienylmethyl)piperidin-4-yl]-2-[(1R)-3,3-difluorocyclopentyl]-2-hydroxy-2-phenylacetamide], for which the Ki on Muscarinic M2 receptor stood at 460 nM.

As to `Cl.Cl.Nc1cccc(CN2CCC(NC(=O)[C@](O)(c3ccccc3)[C@@H]3CCC(F)(F)C3)CC2)n1` [Example 20, (2R)-N-[1-(6-aminopyridin-2-ylmethyl)piperidin-4-yl]-2-[(1R)-3,3-difluorocyclopentyl]-2-hydroxy-2-phenylacetamide dihydrochloride], the Ki worked out at 550 nM at Muscarinic M2 receptor and 3 nM on Muscarinic M3 receptor (CHO cell membranes expressing cloned human receptor, 0.2 nM [3H]-N-methylscopolamine, pH 7.4, 2 hours, 25° C, read-out: Ki M3 (inhibitory effects on binding to muscarinic M3 receptor)). In addition, the “M2/M3 (ratio of binding Ki)” value on Muscarinic M3 receptor (selectivity ratio of Ki values, binding) is recorded as 180.
